Source: patent publication US20100151104A1, “Preservative System For Beverages Based On Combinations Of Trans-Cinnamic Acid, Lauric Arginate, And Dimethyl Dicarbonate” (priority 2008, published 2010)

How the values were obtained:
Format in all cases: cell-based
[1] = tested on: Brettanomyces bruxellensus; assay: Growth in 10% apple juice beverage with combinations of LAE & cinnamic acid; log (QA/Qa+QB/Qb) calculation; conditions: for amount of growth (normalized) to control: LAE 0 ppm
Text: (§1) Trans-cinnamic acid and lauric arginate were combined in the following beverage formulation: [table] […] The analysis of the interaction between lauric arginate and cinnamic acid can be refined through use of a mathematical method developed by Voorspuij and Nass (Arch. Int. pharmacodyn. 59:211 1957) (generally accepted among those practiced in the art.) Herein, the interactions between two active substances can be explored. First the quantity (Qa=Molar Cone) of compound A required for an end point (concentration required to stabilize product for 16 weeks) is established. Similarly, the quantity (Qb =Molar cone) of substance B required to establish the same endpoint is established. Thereafter, mixtures of A & B, in quantities QA & Qs are established that also define endpoints. […] If the sum of the ratios for a mixture of A & Bare=1, then the interaction is considered additive. […] Calculation of log (QA/Qa+QB/Qb) for LAE+trans Cinnamic Acid vs Brettanomyces bruzellensus

Brettanomyces nardensis = assay: as above; conditions: for amount of growth (normalized) to control: LAE 0 ppm
Text: as §1, with “bruzellensus” left out

Saccharomyces cerevsiae = assay: as above; conditions: for amount of growth (normalized) to control: LAE 0 ppm
Text: as §1, with “[table] • Values reflect amount of growth (normalized) to control (0 ppm LAE & 0 ppm Cinnamic acid) for each pH tested.” for “[table]”, “Saccharomyces […]” for “Brettanomyces bruzellensus”

[2] = tested on: seven bio-indicator strains (Zygosaccharomyce baili, Brettanomyces species, Saccharomyces cerevisiae, Paecilomyces lilacinus, Zygosaccharomyces bisporus …); assay: Example 2: growth/no growth of seven bio-indicator strains in 4% apple juice beverage, 16 weeks; conditions: FIGS. 1a, 1b; stand alone; pH 3.4; 16 weeks at 25° C.
Text: A single preparation of base beverage was employed to prepare each of five tests and consisted of 4% apple juice, 68 g sucrose/L, 52 g glucose/L, 2 g fructose/L prepared in batch water that was formulated to 90 ppm hardness with calcium chloride and magnesium chloride. […] The total combined quantity of sodium malate and malic acid was near constant, but the ratio of malic acid and malate varied slightly given the presence or absence of lauric arginate or cinnamic acid. Where required, lauric arginate or cinnamic acid was supplemented from separately prepared stock solutions. Each of the five tests employed the same bio-indicator organisms; Growth (+) versus no growth (-) established by visual inspection or spectrophotometrically. […] Y3, Zygosaccharomyce baili, Pepsi isolate 906; C-7UP, Brettanomyces species, Pepsi Isolate; Spore, an ascospore preparation of Saccharomyces cerevisiae 99 a Pepsi Isolate; […], Zygosaccharomyces baili, ATCC 60484; Spores, M7, Paecilomyces lilacinus ATCC 90461; […], Zygosaccharomyces bisporus ATCC 52407; Spores, M4, Talaromvces flavus var. flavus ATCC 10512. Samples were incubated for period of 16 weeks at 25° C. in vessels protective against evaporation.

[3] = stand alone, end point = concentration required to stabilize product for 16 weeks

**Q.** What does the source list for O=C(O)/C=C/c1ccccc1 [Cinnamic Acid, trans-cinnamic acid]?
**A.** QA/Qa + QB/Qb ([1]; QLAE 0, QCA 75): 1.00; QLAE/QLAE* ([1]; QLAE 0, QCA 75): 0.00; QNaB/QNAB* ([1]; QLAE 0, QCA 75): 1.00; log (QA/Qa + QB/Qb) ([1]; QLAE 0, QCA 75): 0.0000; amount of growth (normalized) to control ([1]; pH 3.0, Cinnamic Acid 10 ppm): 85%; amount of growth (normalized) to control ([1]; pH 3.0, Cinnamic Acid 20 ppm): 82%; amount of growth (normalized) to control ([1]; pH 3.0, Cinnamic Acid 50 ppm): 4%; amount of growth (normalized) to control ([1]; pH 3.0, Cinnamic Acid 75 ppm): 1%; amount of growth (normalized) to control ([1]; pH 3.0, Cinnamic Acid 100 ppm): 1%; amount of growth (normalized) to control ([1]; pH 3.5, Cinnamic Acid 10 ppm): 90%; amount of growth (normalized) to control ([1]; pH 3.5, Cinnamic Acid 20 ppm): 89%; amount of growth (normalized) to control ([1]; pH 3.5, Cinnamic Acid 50 ppm): 27%; amount of growth (normalized) to control ([1]; pH 3.5, Cinnamic Acid 75 ppm): 0%; amount of growth (normalized) to control ([1]; pH 3.5, Cinnamic Acid 100 ppm): 0%; amount of growth (normalized) to control ([1]; pH 4.0, Cinnamic Acid 10 ppm): 99%; amount of growth (normalized) to control ([1]; pH 4.0, Cinnamic Acid 20 ppm): 96%; amount of growth (normalized) to control ([1]; pH 4.0, Cinnamic Acid 50 ppm): 65%; amount of growth (normalized) to control ([1]; pH 4.0, Cinnamic Acid 75 ppm): 1%; amount of growth (normalized) to control ([1]; pH 4.0, Cinnamic Acid 100 ppm): 1%; QCA* (quantity of cinnamic acid alone required for the end point) [1, 3]: QCA* 75; QA/Qa + QB/Qb (Brettanomyces nardensis; QLAE 0, QCA 50): 1.00; QLAE/QLAE* (Brettanomyces nardensis; QLAE 0, QCA 50): 0.00; QNaB/QNAB* (Brettanomyces nardensis; QLAE 0, QCA 50): 1.00; log (QA/Qa + QB/Qb) (Brettanomyces nardensis; QLAE 0, QCA 50): 0.0000; amount of growth (normalized) to control (Brettanomyces nardensis; pH 3.0, Cinnamic Acid 10 ppm): 89%; amount of growth (normalized) to control (Brettanomyces nardensis; pH 3.0, Cinnamic Acid 20 ppm): 67%; amount of growth (normalized) to control (Brettanomyces nardensis; pH 3.0, Cinnamic Acid 50 ppm): 1%; amount of growth (normalized) to control (Brettanomyces nardensis; pH 3.0, Cinnamic Acid 75 ppm): 0%; amount of growth (normalized) to control (Brettanomyces nardensis; pH 3.0, Cinnamic Acid 100 ppm): 0%; amount of growth (normalized) to control (Brettanomyces nardensis; pH 3.5, Cinnamic Acid 10 ppm): 88%; amount of growth (normalized) to control (Brettanomyces nardensis; pH 3.5, Cinnamic Acid 20 ppm): 79%; amount of growth (normalized) to control (Brettanomyces nardensis; pH 3.5, Cinnamic Acid 50 ppm): 2%; amount of growth (normalized) to control (Brettanomyces nardensis; pH 3.5, Cinnamic Acid 75 ppm): 1%; amount of growth (normalized) to control (Brettanomyces nardensis; pH 3.5, Cinnamic Acid 100 ppm): 1%; amount of growth (normalized) to control (Brettanomyces nardensis; pH 4.0, Cinnamic Acid 10 ppm): 118%; amount of growth (normalized) to control (Brettanomyces nardensis; pH 4.0, Cinnamic Acid 20 ppm): 101%; amount of growth (normalized) to control (Brettanomyces nardensis; pH 4.0, Cinnamic Acid 50 ppm): 5%; amount of growth (normalized) to control (Brettanomyces nardensis; pH 4.0, Cinnamic Acid 75 ppm): 2%; amount of growth (normalized) to control (Brettanomyces nardensis; pH 4.0, Cinnamic Acid 100 ppm): 1%; QCA* (quantity of cinnamic acid alone required for the end point) (Brettanomyces nardensis; [3]): QCA* 50; QA/Qa + QB/Qb (Saccharomyces cerevsiae; QLAE 0, QCA 300): 1.00; QLAE/QLAE* (Saccharomyces cerevsiae; QLAE 0, QCA 300): 0.00; QNaB/QNAB* (Saccharomyces cerevsiae; QLAE 0, QCA 300): 1.00; log (QA/Qa + QB/Qb) (Saccharomyces cerevsiae; QLAE 0, QCA 300): 0.0000; amount of growth (normalized) to control (Saccharomyces cerevsiae; pH 3.0, Cinnamic Acid 10 ppm): 80%; amount of growth (normalized) to control (Saccharomyces cerevsiae; pH 3.0, Cinnamic Acid 20 ppm): 74%; amount of growth (normalized) to control (Saccharomyces cerevsiae; pH 3.0, Cinnamic Acid 50 ppm): 50%; amount of growth (normalized) to control (Saccharomyces cerevsiae; pH 3.0, Cinnamic Acid 75 ppm): 26%; amount of growth (normalized) to control (Saccharomyces cerevsiae; pH 3.0, Cinnamic Acid 100 ppm): 11%; amount of growth (normalized) to control (Saccharomyces cerevsiae; pH 3.5, Cinnamic Acid 10 ppm): 96%; amount of growth (normalized) to control (Saccharomyces cerevsiae; pH 3.5, Cinnamic Acid 20 ppm): 85%; amount of growth (normalized) to control (Saccharomyces cerevsiae; pH 3.5, Cinnamic Acid 50 ppm): 61%; amount of growth (normalized) to control (Saccharomyces cerevsiae; pH 3.5, Cinnamic Acid 75 ppm): 44%; amount of growth (normalized) to control (Saccharomyces cerevsiae; pH 3.5, Cinnamic Acid 100 ppm): 22%; amount of growth (normalized) to control (Saccharomyces cerevsiae; pH 4.0, Cinnamic Acid 10 ppm): 96%; amount of growth (normalized) to control (Saccharomyces cerevsiae; pH 4.0, Cinnamic Acid 20 ppm): 87%; amount of growth (normalized) to control (Saccharomyces cerevsiae; pH 4.0, Cinnamic Acid 50 ppm): 72%; amount of growth (normalized) to control (Saccharomyces cerevsiae; pH 4.0, Cinnamic Acid 75 ppm): 54%; amount of growth (normalized) to control (Saccharomyces cerevsiae; pH 4.0, Cinnamic Acid 100 ppm): 39%; QCA* (quantity of cinnamic acid alone required for the end point) (Saccharomyces cerevsiae; [3]): QCA* 300; concentration required to inhibit all seven bio-indicator strains [2]: 1.61 mM
